This passage reports EC50 and CC50 results from patent US12012411B2, “Viral replication inhibitors” (Katholieke Universiteit Leuven, priority 2011, dated 2024).

Series [1] concerns DENV-4 strain Dak HD 34 460. Description: Antiviral activity against DENV-4 in Vero-B cells (viral RNA load by RT-qPCR). The class given is cell-based, Dengue virus. To be noted: Dengue virus, DENV4, Vero B. On the technique in general: In qPCR the cycle at which signal appears reflects the starting amount.
A short description of a further series: in vitro. To be noted: African green monkey; for CC50 at 4 days: uninfected quiescent Vero-B cells.
The test system of series [2] is DENV-1 Djibouti strain D1/H/IMTSSA/98/606. Description: Antiviral activity against DENV-1 in Vero-B cells (viral RNA load by RT-qPCR). The class given is cell-based, Dengue virus. To be noted: Dengue virus, DENV1, Vero B.
The next series has as its system DENV-2 NGC. Nature of the series: Antiviral activity against DENV-2 NGC in Vero-B cells (viral RNA load by RT-qPCR). The class given is cell-based, Dengue virus. To be noted: Dengue virus, DENV2, Vero B, DENV-2 in Vero-B cells; inhibition of viral RNA replication by 50% (Table 3).
For series [3], the system named is DENV-3 strain H87 prototype. Nature of the series: Antiviral activity against DENV-3 in Vero-B cells (viral RNA load by RT-qPCR). The class given is cell-based, Dengue virus. To be noted: Dengue virus, DENV3, Vero B.

Broadly, the EC50 is the concentration needed to bring the measured effect to its halfway point. With `COc1cc(NC(C(=O)c2c[nH]c3ccccc23)c2ccccc2)ccn1` (stereo not shown) [CPD-045], the EC50 in series [1] worked out at 11000 nM; in series [2], 640 nM; with DENV-2 NGC, 60 nM; in series [3] it was 870 nM. In “in vitro”, this compound came in with a CC50 at 4 days of over 139000 nM.
As for `COc1cccc(NC(C(=O)c2cn(CCO)c3ccc(F)cc23)c2ccccc2)c1` (stereo not shown) [CPD-146], the EC50 in series [1] was 4250 nM; in series [2] it was 690 nM; in the series on DENV-2 NGC it was 50 nM; in series [3], 2720 nM. This compound returned a CC50 in “in vitro” of 25000 nM.
Regarding `COc1cccc(NC(C(=O)c2nn(C)c3cc(OC)ccc23)c2ccccc2)c1` (stereo not shown) [CPD-266], the EC50 is 3510 nM in series [1], 700 nM in series [2], 60 nM in the series with DENV-2 NGC and 4320 nM in series [3]. The CC50 at 4 days in “in vitro” is over 124000 nM.
Turning to `COc1cc(NC(C(=O)c2c[nH]c3c(C)cccc23)c2ccccc2)cc(OCCO)c1` (stereo not shown) [CPD-331], the EC50 is 3280 nM in series [1], 390 nM in series [2], 20 nM in the series with DENV-2 NGC and 390 nM in series [3]. In the series “in vitro”, the CC50 at 4 days is 14000 nM.
As for `COc1cc(NC(C(=O)c2c[nH]c3c(C)cccc23)c2ccccc2)cc(OC)c1` (stereo not shown) [CPD-337], the EC50 is 950 nM in series [1], 90 nM in series [2], 5 nM with DENV-2 NGC and 230 nM in series [3]. This compound also gave a CC50 at 4 days in “in vitro” of 15000 nM.
In the case of `COc1cccc(NC(C(=O)c2c[nH]c3ccccc23)c2ccc(F)nc2)c1` (stereo not shown) [CPD-214], the EC50 turned out to be 4160 nM in series [1], 150 nM in series [2], 30 nM in the series with DENV-2 NGC and 990 nM in series [3]. The compound further had a CC50 at 4 days in “in vitro” of 16000 nM.
`COc1cc(NC(C(=O)c2c[nH]c3nc(C)ccc23)c2ccccc2)cc(OC)c1` (stereo not shown) [CPD-232]: the EC50 in series [1] was 1150 nM; in series [2], 850 nM; with DENV-2 NGC, 100 nM; in series [3] it was 2690 nM. This compound gave a CC50 at 4 days in “in vitro” of over 125000 nM.
The corresponding values for `COc1cc(NC(C(=O)c2c[nH]c3ncc(F)cc23)c2ccccc2)cc(OC)c1` (stereo not shown) [CPD-234] are 4190 nM, 760 nM, 50 nM, 2000 nM and 15000 nM.
In the case of `COc1cc(CO)cc(NC(C(=O)c2c[nH]c3ccccc23)c2cccnc2)c1` (stereo not shown) [CPD-282], the EC50 came out at 13100 nM in series [1], 1240 nM in series [2], 260 nM with DENV-2 NGC and 3120 nM in series [3]. Also, the CC50 at 4 days in “in vitro” was over 128000 nM.
Regarding `COc1cccc(NC(C(=O)c2c[nH]c3ccccc23)c2cnc(OC)cn2)c1` (stereo not shown) [CPD-249], the concentration giving a half-maximal response (EC50) amounted to 1980 nM in series [1], 1130 nM in series [2], 100 nM in the series with DENV-2 NGC and 4570 nM in series [3]. In addition, the CC50 at 4 days in “in vitro” worked out at 53000 nM.
Turning to `COc1ccc(C(Nc2cccc(OC)c2)C(=O)c2c[nH]c3ccccc23)nc1` (stereo not shown) [CPD-310], the EC50 in series [1] came out at 9370 nM; in series [2] it was 1110 nM; with DENV-2 NGC it was 60 nM; in series [3], 650 nM. In the series “in vitro”, this compound registered a CC50 at 4 days of 25000 nM.
Consider `COc1cc(NC(C(=O)c2cn(CCO)c3ccccc23)c2ccccc2)cc(OC)c1` (stereo not shown) [CPD-148], for which the EC50 was found to be 2870 nM in series [1], 1650 nM in series [2], 70 nM with DENV-2 NGC and 5540 nM in series [3]. In “in vitro”, this compound yielded a CC50 of 44000 nM.
With `COc1cc(NC(C(=O)c2nn(C)c3ccccc23)c2ccccc2)cc(OCCO)c1` (stereo not shown) [CPD-298], the EC50 in series [1] is 4520 nM; in series [2], 2020 nM; in the series with DENV-2 NGC, 420 nM; in series [3], 5790 nM. Moreover, in “in vitro”, the CC50 at 4 days was over 116000 nM.
For `COc1cccc(NC(C(=O)c2c[nH]c3ccccc23)c2cc(C)on2)c1` (stereo not shown) [CPD-025], in that order: 11800 nM, 7890 nM, 680 nM, 13000 nM and 48000 nM.
With `COc1cc(NC(C(=O)c2cn(CCCO)c3ccc(F)cc23)c2ccccc2)cc(OC)c1` (stereo not shown) [CPD-156], the EC50 worked out at 3370 nM in series [1], 610 nM in series [2], 20 nM in the series on DENV-2 NGC and 2120 nM in series [3]. In addition, in the series “in vitro”, the CC50 was 11000 nM.
On to `COc1cccc(NC(C(=O)c2c[nH]c3ccccc23)c2cnc(OC)nc2)c1` (stereo not shown) [CPD-240], for which the EC50 came out at 8730 nM in series [1], 1200 nM in series [2], 110 nM with DENV-2 NGC and 2380 nM in series [3]. This compound also gave a CC50 at 4 days in “in vitro” of 63000 nM.
With `COc1cc(CO)cc(NC(C(=O)c2c[nH]c3ccccc23)c2cnc(OC)cn2)c1` (stereo not shown) [CPD-288], the EC50 in series [1] turned out to be 6330 nM; in series [2], 1900 nM; in the series on DENV-2 NGC, 120 nM; in series [3], 2700 nM. In “in vitro”, this compound returned a CC50 at 4 days of 77000 nM.
For the compound `COc1cccc(NC(C(=O)c2c[nH]c3ccc(S(C)(=O)=O)cc23)c2ccccc2)c1` (stereo not shown) [CPD-229], the EC50 in series [1] was found to be 7550 nM; in series [2], 2810 nM; with DENV-2 NGC, 2400 nM; in series [3], 43000 nM. The CC50 at 4 days in “in vitro” was over 115000 nM.
On to `COc1cc(NC(C(=O)c2c[nH]c3ccccc23)c2cnc(OC)cn2)cc(OCCO)c1` (stereo not shown) [CPD-292], for which the EC50 in series [1] was determined as 7080 nM; in series [2], 830 nM; with DENV-2 NGC, 60 nM; in series [3], 1110 nM. Besides, the CC50 at 4 days in the series “in vitro” was determined as 68000 nM.
`COc1cccc(NC(C(=O)c2c[nH]c3ccccc23)c2ccc(C(F)(F)F)nc2)c1` (stereo not shown) [CPD-315]: the EC50 in series [1] turned out to be 1970 nM; in series [2] it was 380 nM; with DENV-2 NGC, 50 nM; in series [3], 1010 nM. The CC50 at 4 days in the series “in vitro” turned out to be 13000 nM.
On to `COc1cccc(NC(C(=O)c2c[nH]c3cc(Cl)ccc23)c2cn3ccccc3n2)c1` (stereo not shown) [CPD-150], for which the EC50 in series [1] amounted to 8870 nM; in series [2], 1280 nM; with DENV-2 NGC, 30 nM; in series [3], 1070 nM. Further, the CC50 at 4 days in “in vitro” amounted to 105000 nM.
As for `COc1cccc(NC(C(=O)c2cn(C)c3ccccc23)c2ccccc2)c1` (stereo not shown) [CPD-049], the 50% effective concentration (EC50) in series [1] worked out at 2270 nM; in series [2], 2210 nM; in the series with DENV-2 NGC, 80 nM; in series [3] it was 10500 nM. In addition, the CC50 at 4 days in the series “in vitro” was over 134000 nM.
With `COc1cc(NC(C(=O)c2c[nH]c3cc(F)ccc23)c2ccccc2)cc(OCCO)c1` (stereo not shown) [CPD-316], the EC50 stood at 4420 nM in series [1], 390 nM in series [2], 20 nM in the series with DENV-2 NGC and 320 nM in series [3]. In “in vitro”, this compound registered a CC50 at 4 days of 29000 nM.
In the case of `COc1cccc(NC(C(=O)c2c[nH]c3ccc(F)cc23)c2cccnc2)c1` (stereo not shown) [CPD-151], the EC50 in series [1] is 4870 nM; in series [2], 530 nM; with DENV-2 NGC, 90 nM; in series [3], 2100 nM. The same compound had a CC50 at 4 days in “in vitro” of over 133000 nM.
On to `COc1cccc(NC(C(=O)c2c[nH]c3ccccc23)c2ccccn2)c1` (stereo not shown) [CPD-301], for which the EC50 in series [1] stood at 4250 nM; in series [2] it was 1120 nM; with DENV-2 NGC, 80 nM; in series [3] it was 500 nM. The same compound gave a CC50 at 4 days in “in vitro” of 89000 nM.
Turning to `COc1cccc(NC(C(=O)c2c[nH]c3cc(F)ccc23)c2ccc(OC)nc2)c1` (stereo not shown) [CPD-213], the EC50 in series [1] came to 2850 nM; in series [2], 810 nM; in the series on DENV-2 NGC, 60 nM; in series [3], 2540 nM. This compound also yielded a CC50 at 4 days in the series “in vitro” of 15000 nM.
